Test results: publication PMC11005723, “Development of Complementary Photo‐arginine/lysine to Promote Discovery of Arg/Lys hPTMs Interactomes” (Advanced Science, 2024)

System: HEK293T nuclear lysates
Assay: SILAC‐based pull‐down proteomics H4K5me2/H4K5 (probes 7/5)
Assay type: binding, human
Details: for F6 log2 (H4K5me2/H4K5): run F6; for E6 log2 (H4K5me2/H4K5): run E6

probe 7: H4K5me2 peptide probe with photo‐arginine R(dz) and K(biotin) (SGRGKGGKGLGKGGK; photo-arginine R(dz) at 3; dimethyl-lysine at 5; K(biotin) at 15)
F6 log2 (H4K5me2/H4K5) (protein Q5SY16 NOL9): 0.298 | E6 log2 (H4K5me2/H4K5) (protein Q5UIP0 RIF1): 0.1193 | F6 log2 (H4K5me2/H4K5) (protein Q5UIP0 RIF1): -0.04241 | E6 log2 (H4K5me2/H4K5) (protein Q5VZL5 ZMYM4): 0.09551 | F6 log2 (H4K5me2/H4K5) (protein Q5VZL5 ZMYM4): -0.04431 | E6 log2 (H4K5me2/H4K5) (protein Q8NFW8 CMAS): 0.141 | F6 log2 (H4K5me2/H4K5) (protein Q8NFW8 CMAS): 0.05465 | E6 log2 (H4K5me2/H4K5) (protein Q8WYA6 CTNNBL1): 0.1516 | F6 log2 (H4K5me2/H4K5) (protein Q8WYA6 CTNNBL1): 0.456 | E6 log2 (H4K5me2/H4K5) (protein Q9BRX2 PELO): 0.1716 | F6 log2 (H4K5me2/H4K5) (protein Q9BRX2 PELO): 0.4162 | E6 log2 (H4K5me2/H4K5) (protein Q9BUF5 TUBB6): 0.1331 | F6 log2 (H4K5me2/H4K5) (protein Q9BUF5 TUBB6): -0.5148 | E6 log2 (H4K5me2/H4K5) (protein Q9BVA1 TUBB2B): 0.166 | F6 log2 (H4K5me2/H4K5) (protein Q9BVA1 TUBB2B): -0.2469 | E6 log2 (H4K5me2/H4K5) (protein Q9BVJ6 UTP14A): 0.05903 | F6 log2 (H4K5me2/H4K5) (protein Q9BVJ6 UTP14A): -0.461 | E6 log2 (H4K5me2/H4K5) (protein Q9BW71 HIRIP3): 0.0877 | F6 log2 (H4K5me2/H4K5) (protein Q9BW71 HIRIP3): -0.01781 | E6 log2 (H4K5me2/H4K5) (protein Q9BXP5 SRRT): 0.141 | F6 log2 (H4K5me2/H4K5) (protein Q9BXP5 SRRT): 0.1118 | E6 log2 (H4K5me2/H4K5) (protein Q9H4L7 SMARCAD1): 0.1459 | F6 log2 (H4K5me2/H4K5) (protein Q9H4L7 SMARCAD1): 0.07323 | E6 log2 (H4K5me2/H4K5) (protein Q9H5H4 ZNF768): 0.1121 | F6 log2 (H4K5me2/H4K5) (protein Q9H5H4 ZNF768): 0.2152 | E6 log2 (H4K5me2/H4K5) (protein Q9NPJ6 MED4): 0.1455 | F6 log2 (H4K5me2/H4K5) (protein Q9NPJ6 MED4): 0.1113 | E6 log2 (H4K5me2/H4K5) (protein Q9NRL2 BAZ1A): 0.163 | F6 log2 (H4K5me2/H4K5) (protein Q9NRL2 BAZ1A): 0.1532 | E6 log2 (H4K5me2/H4K5) (protein Q9NX58 LYAR): 0.1556 | F6 log2 (H4K5me2/H4K5) (protein Q9NX58 LYAR): 0.3557 | E6 log2 (H4K5me2/H4K5) (protein Q9P013 CWC15): 0.1308 | F6 log2 (H4K5me2/H4K5) (protein Q9P013 CWC15): 0.1373 | E6 log2 (H4K5me2/H4K5) (protein Q9P258 RCC2): 0.1054 | F6 log2 (H4K5me2/H4K5) (protein Q9P258 RCC2): 0.04172 | E6 log2 (H4K5me2/H4K5) (protein Q9UFW8 CGGBP1): 0.1502 | F6 log2 (H4K5me2/H4K5) (protein Q9UFW8 CGGBP1): 0.1918 | E6 log2 (H4K5me2/H4K5) (protein Q9ULV4 CORO1C): 0.1506 | F6 log2 (H4K5me2/H4K5) (protein Q9ULV4 CORO1C): 0.2392 | E6 log2 (H4K5me2/H4K5) (protein Q9Y5Q8 GTF3C5): 0.07771 | F6 log2 (H4K5me2/H4K5) (protein Q9Y5Q8 GTF3C5): -0.06295 | E6 log2 (H4K5me2/H4K5) (protein Q9Y5Q9 GTF3C3): 0.06434 | F6 log2 (H4K5me2/H4K5) (protein Q9Y5Q9 GTF3C3): 0.04559 | E6 log2 (H4K5me2/H4K5) (protein Q9Y6G9 DYNC1LI1): 0.06739 | F6 log2 (H4K5me2/H4K5) (protein Q9Y6G9 DYNC1LI1): 0.07842 | E6 log2 (H4K5me2/H4K5) (protein Q9Y383 LUC7L2): 0.1112 | F6 log2 (H4K5me2/H4K5) (protein Q9Y383 LUC7L2): 0.1004 | E6 log2 (H4K5me2/H4K5) (protein Q69YN4 KIAA1429): 0.07633 | F6 log2 (H4K5me2/H4K5) (protein Q69YN4 KIAA1429): 1.095 | E6 log2 (H4K5me2/H4K5) (protein Q86UV5 USP48): 0.08539 | F6 log2 (H4K5me2/H4K5) (protein Q86UV5 USP48): 0.1516 | E6 log2 (H4K5me2/H4K5) (protein Q86VP6 CAND1): 0.1189 | F6 log2 (H4K5me2/H4K5) (protein Q86VP6 CAND1): 0.1916 | E6 log2 (H4K5me2/H4K5) (protein Q96I24 FUBP3): 0.09267 | F6 log2 (H4K5me2/H4K5) (protein Q96I24 FUBP3): 0.003553 | E6 log2 (H4K5me2/H4K5) (protein Q96RL1 UIMC1): 0.1095 | F6 log2 (H4K5me2/H4K5) (protein Q96RL1 UIMC1): 0.3246 | E6 log2 (H4K5me2/H4K5) (protein Q96SI9 STRBP): 0.1111 | F6 log2 (H4K5me2/H4K5) (protein Q96SI9 STRBP): -0.1086 | E6 log2 (H4K5me2/H4K5) (protein Q00839 HNRNPU): 0.1593 | F6 log2 (H4K5me2/H4K5) (protein Q00839 HNRNPU): 0.1015 | E6 log2 (H4K5me2/H4K5) (protein Q06265 EXOSC9): 0.08559 | F6 log2 (H4K5me2/H4K5) (protein Q06265 EXOSC9): 0.2199 | E6 log2 (H4K5me2/H4K5) (protein Q08211 DHX9): 0.1119 | F6 log2 (H4K5me2/H4K5) (protein Q08211 DHX9): 0.3522 | E6 log2 (H4K5me2/H4K5) (protein Q12888 TP53BP1): 0.1736 | F6 log2 (H4K5me2/H4K5) (protein Q12888 TP53BP1): 0.06404 | E6 log2 (H4K5me2/H4K5) (protein Q13409 DYNC1I2): 0.06369 | F6 log2 (H4K5me2/H4K5) (protein Q13409 DYNC1I2): -0.3262 | E6 log2 (H4K5me2/H4K5) (protein Q13838 DDX39B): 0.1273 | F6 log2 (H4K5me2/H4K5) (protein Q13838 DDX39B): 0.2575 | E6 log2 (H4K5me2/H4K5) (protein Q14247 CTTN): 0.1014 | F6 log2 (H4K5me2/H4K5) (protein Q14247 CTTN): -0.09702 | E6 log2 (H4K5me2/H4K5) (protein Q14498 RBM39): 0.177 | F6 log2 (H4K5me2/H4K5) (protein Q14498 RBM39): 0.352 | E6 log2 (H4K5me2/H4K5) (protein Q14683 SMC1A): 0.1403 | F6 log2 (H4K5me2/H4K5) (protein Q14683 SMC1A): 0.1731 | E6 log2 (H4K5me2/H4K5) (protein Q15007 WTAP): 0.1397 | F6 log2 (H4K5me2/H4K5) (protein Q15007 WTAP): 0.4766 | E6 log2 (H4K5me2/H4K5) (protein Q15029 EFTUD2): 0.07001 | F6 log2 (H4K5me2/H4K5) (protein Q15029 EFTUD2): 0.00906 | E6 log2 (H4K5me2/H4K5) (protein Q15181 PPA1): 0.1337 | F6 log2 (H4K5me2/H4K5) (protein Q15181 PPA1): 0.2844 | E6 log2 (H4K5me2/H4K5) (protein Q15366 PCBP2): 0.119 | F6 log2 (H4K5me2/H4K5) (protein Q15366 PCBP2): 0.02194 | E6 log2 (H4K5me2/H4K5) (protein Q15459 SF3A1): 0.09759 | F6 log2 (H4K5me2/H4K5) (protein Q15459 SF3A1): -0.03717 | E6 log2 (H4K5me2/H4K5) (protein Q15637 SF1): 0.06831 | F6 log2 (H4K5me2/H4K5) (protein Q15637 SF1): -0.04609 | E6 log2 (H4K5me2/H4K5) (protein Q15654 TRIP6): 0.1136 | F6 log2 (H4K5me2/H4K5) (protein Q15654 TRIP6): 0.7606 | E6 log2 (H4K5me2/H4K5) (protein Q16543 CDC37): 0.09946 | F6 log2 (H4K5me2/H4K5) (protein Q16543 CDC37): -0.01218 | E6 log2 (H4K5me2/H4K5) (protein Q92769 HDAC2): 0.1172 | F6 log2 (H4K5me2/H4K5) (protein Q92769 HDAC2): 0.07863 | E6 log2 (H4K5me2/H4K5) (protein Q92785 DPF2): 0.1557 | F6 log2 (H4K5me2/H4K5) (protein Q92785 DPF2): 0.235 | E6 log2 (H4K5me2/H4K5) (protein Q92945 KHSRP): 0.0526 | F6 log2 (H4K5me2/H4K5) (protein Q92945 KHSRP): 0.2777 | E6 log2 (H4K5me2/H4K5) (protein Q99459 CDC5L): 0.1274 | F6 log2 (H4K5me2/H4K5) (protein Q99459 CDC5L): -0.0666
